Oligonucleotides are written 5' to 3', each unit as a sugar letter and its base; * is a phosphorothioate linkage, no mark a phosphodiester; rarer units and linkages stand in square brackets, end groups in braces. Plain capitals give the bases only. e = 2'-O-(2-methoxyethyl) (MOE); [5mC] = 5-methylcytosine; d = 2'-deoxy (DNA)
Tests used:
[1] = test system: Human STAT3 mRNA; assay: Human STAT3 mRNA dose response in T-24 cells, real-time PCR with PPS 199 (Table 18); type: cell-based; settings: 16 hours, − decrease, + increase relative to untreated control
How it was run: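 Bladder carcinoma T-24 cells transfected with oligonucleotide at 18.75, 37.5, 75 or 150 nM plus 3 ug/mL LIPOFECTIN per 100 nM, 16 h. STAT3 mRNA quantified by real-time PCR (PPS 199), normalized with Ribogreen; change given relative to untreated cells.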

[2] = test system: Human STAT3 mRNA; assay: Human STAT3 mRNA dose response in A549 cells, real-time PCR with PPS 199 (Table 20); type: cell-based; settings: 16 hours, LIPOFECTIN, − decrease, + increase relative to untreated control cells
Description: An additional dose-response experiment was preformed in A549 cells. A549 cells were treated with 18.75, 37.5, 75, or 150 nM of oligonucleotide mixed with 3 ug/mL LIPOFECTIN per 100 nM oligonucleotide as described by other examples herein. Control oligonucleotides used were ISIS 129686 (SEQ ID NO: 394) and ISIS 129690 (SEQ ID NO: 393). Untreated cells served as controls. Following 16 hours of treatment, RNA was prepared from cells for subsequent real-time PCR analysis.
Human STAT3 mRNA expression levels were quantitated by real-time PCR using primer probe set PPS 199 and gene target quantities were normalized using Ribogreen as described in other examples herein. A “−” or “+” designation in the dose response results indicates a decrease or increase of STAT 3 mRNA expression, respectively, relative to untreated control cells.

Substance: 337332 (antisense eG*eA*eA*eG*e[5mC]*d[5mC]*d[5mC]*dT*dT*dG*d[5mC]*d[5mC]*dA*dG*d[5mC]*e[5mC]*eA*eT*eG*eT) [compound 337332]
- Percent change of STAT3 expression using PPS 199 ([1]; 18.75 nM oligonucleotide): −63%
- Percent change of STAT3 expression using PPS 199 ([1]; 37.5 nM oligonucleotide): −79%
- Percent change of STAT3 expression using PPS 199 ([1]; 75 nM oligonucleotide): −87%
- Percent change of STAT3 expression using PPS 199 ([1]; 150 nM oligonucleotide): −92%
- Percent change of STAT3 expression in A549 cells using PPS 199 ([2]; 18.75 nM oligonucleotide): −31%
- Percent change of STAT3 expression in A549 cells using PPS 199 ([2]; 37.5 nM oligonucleotide): −61%
- Percent change of STAT3 expression in A549 cells using PPS 199 ([2]; 75 nM oligonucleotide): −77%
- Percent change of STAT3 expression in A549 cells using PPS 199 ([2]; 150 nM oligonucleotide): −87%

Substance: 337348 (antisense eT*e[5mC]*e[5mC]*eG*eA*dA*dT*dG*d[5mC]*d[5mC]*dT*d[5mC]*d[5mC]*dT*d[5mC]*e[5mC]*eT*eT*eG*eG) [compound 337348]
- Percent change of STAT3 expression using PPS 199 ([1]; 18.75 nM oligonucleotide): −61%
- Percent change of STAT3 expression using PPS 199 ([1]; 37.5 nM oligonucleotide): −77%
- Percent change of STAT3 expression using PPS 199 ([1]; 75 nM oligonucleotide): −82%
- Percent change of STAT3 expression using PPS 199 ([1]; 150 nM oligonucleotide): −86%
- Percent change of STAT3 expression in A549 cells using PPS 199 ([2]; 18.75 nM oligonucleotide): −26%
- Percent change of STAT3 expression in A549 cells using PPS 199 ([2]; 37.5 nM oligonucleotide): −43%
- Percent change of STAT3 expression in A549 cells using PPS 199 ([2]; 75 nM oligonucleotide): −55%
- Percent change of STAT3 expression in A549 cells using PPS 199 ([2]; 150 nM oligonucleotide): −77%

Substance: 337333 (antisense eA*eA*eG*eG*eA*dG*dA*dA*dG*d[5mC]*d[5mC]*d[5mC]*dT*dT*dG*e[5mC]*e[5mC]*eA*eG*e[5mC]) [compound 337333]
- Percent change of STAT3 expression using PPS 199 ([1]; 18.75 nM oligonucleotide): −48%
- Percent change of STAT3 expression using PPS 199 ([1]; 37.5 nM oligonucleotide): −73%
- Percent change of STAT3 expression using PPS 199 ([1]; 75 nM oligonucleotide): −82%
- Percent change of STAT3 expression using PPS 199 ([1]; 150 nM oligonucleotide): −88%
- Percent change of STAT3 expression in A549 cells using PPS 199 ([2]; 18.75 nM oligonucleotide): −8%
- Percent change of STAT3 expression in A549 cells using PPS 199 ([2]; 37.5 nM oligonucleotide): −39%
- Percent change of STAT3 expression in A549 cells using PPS 199 ([2]; 75 nM oligonucleotide): −59%
- Percent change of STAT3 expression in A549 cells using PPS 199 ([2]; 150 nM oligonucleotide): −75%

From patent US20050074879A1, “Antisense oligonucleotide modulation of STAT3 expression” (priority 2000, published 2005)
